Results from ChEMBL document CHEMBL3885881, “DrugMatrix”.

Species on record: Rattus norvegicus
Assay: DrugMatrix - Regimen: Daily Repeat
Type: toxicity, organism-based, Sprague-Dawley
Parameters: regimen Daily Repeat, gender Male, age 6-8 weeks
Details: in vivo, po, route oral GAVAGE, […]; for ABSOLUTE BASOPHIL / ABSOLUTE EOSINOPHIL / ABSOLUTE LYMPHOCYTE / ABSOLUTE MONOCYTE / ABSOLUTE SEGMENTED NEUTROPHIL / BASOPHIL / EOSINOPHIL / ERYTHROCYTE COUNT / HEMATOCRIT / HEMOGLOBIN / LEUKOCYTE COUNT / LYMPHOCYTE / MEAN CORPUSCULAR HEMOGLOBIN / MEAN CORPUSCULAR HEMOGLOBIN CONCENTRATION / MEAN CORPUSCULAR VOLUME / MONOCYTE / NEUTROPHIL / NUCLEATED RED BLOOD CELLS / PLATELET COUNT: tissue Blood
[1] = 0 mg/kg, 72 h, dose level Control, time 3 day
[2] = 0 mg/kg, 72 h, tissue Plasma, dose level Control, time 3 day
[3] = 0 mg/kg, 120 h, dose level Control, time 5 day
[4] = 0 mg/kg, 120 h, tissue Plasma, dose level Control, time 5 day
[5] = 0.3 mg/kg, 72 h, dose level Low, time 3 day
[6] = 0.3 mg/kg, 72 h, tissue Plasma, dose level Low, time 3 day

C[C@]12CC[C@@H]3c4ccc(O)cc4CC[C@H]3[C@@H]1CC[C@@H]2O [ESTRADIOL]
ABSOLUTE BASOPHIL [1]: 0 CELLS/uL | ABSOLUTE EOSINOPHIL [1]: 41.83 CELLS/uL | ABSOLUTE LYMPHOCYTE [1]: 8545.5 CELLS/uL | ABSOLUTE MONOCYTE [1]: 240 CELLS/uL | ABSOLUTE SEGMENTED NEUTROPHIL [1]: 906 CELLS/uL | BASOPHIL [1]: 0% | EOSINOPHIL [1]: 0.33% | ERYTHROCYTE COUNT [1]: 5.6 x10E6/uL | HEMATOCRIT [1]: 35.4% | HEMOGLOBIN [1]: 13.42 G/DL | LEUKOCYTE COUNT [1]: 9.73 x10E3/uL | LYMPHOCYTE [1]: 87.83% | MEAN CORPUSCULAR HEMOGLOBIN [1]: 23.98 pg | MEAN CORPUSCULAR HEMOGLOBIN CONCENTRATION [1]: 37.92 G/DL | MEAN CORPUSCULAR VOLUME [1]: 63.3 fL | MONOCYTE [1]: 2.5% | NEUTROPHIL [1]: 9.33% | NUCLEATED RED BLOOD CELLS [1]: 0 /100WBC | PLATELET COUNT [1]: 1032 x10E3/uL | ALANINE AMINOTRANSFERASE [2]: 72.83 u/L | ALBUMIN [2]: 4 G/DL | ALKALINE PHOSPHATASE [2]: 322.83 u/L | ASPARTATE AMINOTRANSFERASE [2]: 102.67 u/L | BLOOD UREA NITROGEN [2]: 12 mg/dL | CARBON DIOXIDE [2]: 34.33 mmol/L | CHLORIDE [2]: 97.67 MEQ/L | CHOLESTEROL [2]: 82.5 mg/dL | CREATINE PHOSPHOKINASE [2]: 410.33 u/L | CREATININE [2]: 0.18 mg/dL | GLUCOSE [2]: 164.5 mg/dL | LACTATE DEHYDROGENASE [2]: 119.5 u/L | LIPASE [2]: 11.83 u/L | PHOSPHORUS [2]: 9.52 mg/dL | POTASSIUM [2]: 5.56 MEQ/L | SODIUM [2]: 142.48 MEQ/L | TOTAL BILIRUBIN [2]: 0.18 mg/dL | TOTAL PROTEIN [2]: 5.77 G/DL | URIC ACID [2]: 0.48 mg/dL | ABSOLUTE BASOPHIL [3]: 0 CELLS/uL | ABSOLUTE EOSINOPHIL [3]: 0 CELLS/uL | ABSOLUTE LYMPHOCYTE [3]: 9065 CELLS/uL | ABSOLUTE MONOCYTE [3]: 341.33 CELLS/uL | ABSOLUTE SEGMENTED NEUTROPHIL [3]: 527 CELLS/uL | BASOPHIL [3]: 0% | EOSINOPHIL [3]: 0% | ERYTHROCYTE COUNT [3]: 5.25 x10E6/uL | HEMATOCRIT [3]: 34.08% | HEMOGLOBIN [3]: 13.5 G/DL | LEUKOCYTE COUNT [3]: 9.93 x10E3/uL | LYMPHOCYTE [3]: 91.17% | MEAN CORPUSCULAR HEMOGLOBIN [3]: 25.7 pg | MEAN CORPUSCULAR HEMOGLOBIN CONCENTRATION [3]: 39.62 G/DL | MEAN CORPUSCULAR VOLUME [3]: 64.93 fL | MONOCYTE [3]: 3.33% | NEUTROPHIL [3]: 5.5% | NUCLEATED RED BLOOD CELLS [3]: 0 /100WBC | PLATELET COUNT [3]: 1077.5 x10E3/uL | ALANINE AMINOTRANSFERASE [4]: 57.83 u/L | ALKALINE PHOSPHATASE [4]: 319.17 u/L | ASPARTATE AMINOTRANSFERASE [4]: 83.33 u/L | BLOOD UREA NITROGEN [4]: 13.67 mg/dL | CARBON DIOXIDE [4]: 30.83 mmol/L | CHLORIDE [4]: 98.33 MEQ/L | CHOLESTEROL [4]: 64.83 mg/dL | CREATINE PHOSPHOKINASE [4]: 263.67 u/L | CREATININE [4]: 0.2 mg/dL | GLUCOSE [4]: 182.83 mg/dL | LACTATE DEHYDROGENASE [4]: 124 u/L | LIPASE [4]: 10.5 u/L | PHOSPHORUS [4]: 10 mg/dL | POTASSIUM [4]: 5.78 MEQ/L | SODIUM [4]: 142.48 MEQ/L | TOTAL BILIRUBIN [4]: 0.2 mg/dL | TOTAL PROTEIN [4]: 6 G/DL | URIC ACID [4]: 0.7 mg/dL | ABSOLUTE BASOPHIL [5]: 0 CELLS/uL | ABSOLUTE EOSINOPHIL [5]: 0 CELLS/uL | ABSOLUTE LYMPHOCYTE [5]: 8342 CELLS/uL | ABSOLUTE MONOCYTE [5]: 154.33 CELLS/uL | ABSOLUTE SEGMENTED NEUTROPHIL [5]: 637 CELLS/uL | BASOPHIL [5]: 0% | EOSINOPHIL [5]: 0% | ERYTHROCYTE COUNT [5]: 5.44 x10E6/uL | HEMATOCRIT [5]: 33.83% | HEMOGLOBIN [5]: 13.07 G/DL | LEUKOCYTE COUNT [5]: 9.13 x10E3/uL | LYMPHOCYTE [5]: 91.67% | MEAN CORPUSCULAR HEMOGLOBIN [5]: 24.07 pg | MEAN CORPUSCULAR HEMOGLOBIN CONCENTRATION [5]: 38.63 G/DL | MEAN CORPUSCULAR VOLUME [5]: 62.23 fL | MONOCYTE [5]: 1.67% | NEUTROPHIL [5]: 6.67% | NUCLEATED RED BLOOD CELLS [5]: 0 /100WBC | PLATELET COUNT [5]: 824 x10E3/uL | ALANINE AMINOTRANSFERASE [6]: 57.33 u/L | ALKALINE PHOSPHATASE [6]: 430 u/L | ASPARTATE AMINOTRANSFERASE [6]: 82.67 u/L | BLOOD UREA NITROGEN [6]: 13.67 mg/dL | CARBON DIOXIDE [6]: 34 mmol/L | CHLORIDE [6]: 97.67 MEQ/L | CHOLESTEROL [6]: 68 mg/dL | CREATINE PHOSPHOKINASE [6]: 290.33 u/L | CREATININE [6]: 0.16 mg/dL | GLUCOSE [6]: 175 mg/dL | LACTATE DEHYDROGENASE [6]: 124 u/L | LIPASE [6]: 11 u/L | PHOSPHORUS [6]: 9.93 mg/dL | POTASSIUM [6]: 5.76 MEQ/L | SODIUM [6]: 142.13 MEQ/L | TOTAL BILIRUBIN [6]: 0.23 mg/dL | URIC ACID [6]: 0.37 mg/dL
